Laboratory results as given in patent publication US20090074885A1, “Reversible Hydrophobic Modification of Drugs for Improved Delivery to Cells” (Roche Madison Inc., priority 2003, published 2009).
“Also recorded” adds a separate entry of the source. Read-outs that look alike come from different tables or passages of the source.

Legend:
[1] = system: rapidly dividing hepatocytes; experiment: Mitosis of hepatocytes after 70% partial hepatectomy and portal vein delivery; format: in vivo, ICR mice; settings: 2 days after treatment, 0.150 μmol intraportal
Description: Delivery of RRH-PI to rapidly dividing cells results in a decrease in the number of cells in mitosis. […] Following the hepatectomy, PI or III (0.150 μmol, 220 μl total injection volume) were delivered to the liver via the portal vein using the mixing chamber. The abdominal cavity was closed in two layers with 4-0 Braunamid suture. After 48 h, the animals were sacrificed, the livers were harvested, formalin fixed, paraffin imbedded, sectioned, and H&E stained. […] Results are reported as the percentage of cells in metaphase (±standard deviation).

MC38 liver metastases = experiment: Liver arterial bolus injection (LABI) in mice with MC38 liver metastases; format: in vivo, C57BL mice; settings: for PI staining of MC38 liver metastases: hepatic artery (LABI) delivery
Description: All surgical procedures were performed under Isoflurane anesthesia. Liver tumors models were established in C57BL mice using MC38 (colon carcinoma) and Hepa 1-6 (hepatoma), in BALB/c mice using B16 (melanoma), and in A/J mice using NXS2 (neuroblastoma) cell lines. Mice were inoculated via the portal vein with 1×10^4 MC38 cells or 0.5-1.25×10^6 Hepa 1-6 cells, or via the tail vein with 0.5-1.25×10^6 B16 or NXS2 cells. Tumor formation was allowed to progress for 2-3 weeks with periodic examination for tumor growth prior to drug/prodrug treatment.
The right gastro-duodenal artery was freed from surrounding tissue and the common hepatic artery was clamped occluding blood flow. The distal part of the right gastroduodenal artery was sutured, a 35 G needle was inserted into the gastroduodenal artery, and secured during the single bolus injection. Following the injection, the needle was retracted and the proximal part of gastroduodenal artery was sutured, and hepatic artery flow was restored. Alternatively, the celiac trunk was clamped close to the aorta and a 35 G needle was inserted above the clamp. The left gastric, splenic, and gastro-duodenal arteries were clamped in order to direct all of the drug solution to the liver. This latter approach was advantageous in the C57BL mouse model because of anatomical variations involving the hepatic artery.
LABI delivery of drug/prodrug (0.150 μmol, 220 μl total injection volume) and controls were performed using the mixing chamber and syringe pumps as previously described. For fluorescent microscopy analysis, the livers were harvested 5 min after LABI, snap frozen in O.C.T. compound, sectioned, stained (for confocal, green—actin (Alexa 488), blue—nuclei (ToPro-3)), and analyzed by fluorescent (Axioplan2) fluorescent microscope (Zeiss) in the rhodamine fluorescence channel (λex=BP 450/12, λem=LP 590 nm filter set) or in the fluorescein fluorescent channel (λex=BP 546/90, λem=LP 515 nm filter set) due to signal intensity) and confocal microscopy (Axioplan 2, Zeiss). For experiments designed to determine the number of PI positive cells, five random fields containing liver tumors and five random fields containing portal triads void of tumor were imaged. The number of cells and positive cells were counted to determine the percentage of positive cells in the corresponding regions.

[2] = system: cells exposed to the peritoneal cavity; experiment: IP application to normal mice, confocal microscopy; format: in vivo, mouse; settings: 10-60 min
Description: For evaluation of prodrug delivery to exposed tissues in the peritoneum, we tested IP application of propidium iodide, BDMSODS-PI, and C12PMMA-PI to both normal mice and in a mouse model of disseminated peritoneal ovarian cancer. All procedures were executed under Isoflurane inhalation anesthesia. In normal mice either the abdominal cavity was opened and the drug mixture was directly applied on abdominal organs (220 μL of drug-OS/ITG over 30 sec), or the drug mixture was injected through the abdominal wall (1 mL of drug-OS/ITG over 1 min). For both delivery protocols, the dual pump mixing chamber was used. After 10-60 min, the animals were euthanized and tissues were harvested, frozen, sectioned, stained with ToPro-3 and Phalloidin Alexa 488, and examined by laser confocal microscopy.

[3] = system: SK-OV-3 (human ovarian carcinoma) cells; experiment: In vitro cellular uptake by fluorescence microscopy, SK-OV-3; format: cell-based; settings: for PI positive cells: 0.150 μmol in 220 μl via mixing chamber, 30 sec exposure; for PI positive cells, prodrug premixed with ITG: premixed with ITG (5 min) before application to the cells
Description: In Vitro cellular uptake of PI, RRH-PI compounds, and IV evaluated by fluorescence measurements. […] Adherent cells were plated at 2.5×10^5 cells/well on 6-well plates 24 h prior to testing. The growth media was removed from individual wells and the drug/prodrug was immediately added to the well with the mixing chamber. […] After 30 sec the drug solution was removed (aspirated) and 2 ml complete media was added to the cells. Experiments conducted with prodrug that was hydrolyzed prior to application to the cells followed a similar protocol, however the combined solution obtained after passing through the mixing chamber was collected and allowed to sit at ambient temperature for 5 min prior to application on the cells. Experiments conducted with Calcein AM (Invitrogen, 100 μl of 20 μM solution in complete media) followed a similar protocol for drug treatment (4 min treatment). Experiments conducted with SYTOX Green (Invitrogen) followed a similar protocol for drug treatment. […] Each condition was repeated in 2 or 3 wells, and the cells were immediately examined by microscopy. Fluorescent microscopy studies were conducted with a three laser LSM 510 confocal microscope, an Axiovert S100 fluorescent microscope, or an Axioplan2 fluorescent microscope (all Zeiss) equipped with filter sets for the rhodamine fluorescence channel (λex=BP 450/12, λem=LP 590 nm filter set) and the fluorescein fluorescent channel (λex=BP 546/90, λem=LP 515 nm filter set). Imaging was performed with an AxioCam digital camera (Zeiss), with AxioVision imaging software (V 4.5, Zeiss). For all images, identical camera settings and exposure times were used on comparative sample and control images. Images were processed with Photoshop (Adobe) for level and brightness using identical settings between sample and control images. For experiments conducted with IV, the cells were plated on 6-well plates with cover slips. […] Imaging was conducted on an Axioplan2 fluorescent microscope (Zeiss) and the same fields were imaged with phase contrast illumination, in the rhodamine fluorescence channel (λex=BP 450/12, λem=LP 590 nm filter set), and in the fluorescein fluorescent channel (λex=BP 546/90, λem=LP 515 nm filter set). IV was also mixed with PI and then delivered to SK-OV-3 cells, and the cells were imaged as before. In one protocol, equal amounts of IV (15.0 mM in DMSO) and PI (15.0 mM in DMSO) were combined and the resulting solution was added to cells via the mixing chamber. In a second method, PI was taken up in the ITG solution (0.748 mM) and mixed with IV (7.48 mM in DMSO) in the mixing chamber. […] The cells were imaged as before following 30 sec-4 min exposure to the drug solution.

[4] = system: Hepa 1-6 (mouse hepatoma) cells; experiment: In vitro cellular uptake by fluorescence microscopy, Hepa 1-6; format: cell-based; settings: 0.150 μmol in 220 μl via mixing chamber, 30 sec exposure
Description: In Vitro cellular uptake of PI, RRH-PI compounds, and IV evaluated by fluorescence measurements. PI and the RRH-prodrugs were tested for cellular uptake on several cell lines which included B16 (murine melanoma), Hepa 1-6 (mouse hepatoma), SK-OV-3 (also SKOV-3, human ovarian carcinoma), OVCAR-3 (human ovarian carcinoma), Jurkat (human T-lymphocyte), 293 (human embryonic kidney), and MC38 (mouse colon carcinoma) cells. Adherent cells were plated at 2.5×10^5 cells/well on 6-well plates 24 h prior to testing. The growth media was removed from individual wells and the drug/prodrug was immediately added to the well with the mixing chamber. Final drug/prodrug concentrations were 0.150 μmol in 220 μl total volume (20 μl OS, 200 μl ITG). After 30 sec the drug solution was removed (aspirated) and 2 ml complete media was added to the cells. Experiments conducted with prodrug that was hydrolyzed prior to application to the cells followed a similar protocol, however the combined solution obtained after passing through the mixing chamber was collected and allowed to sit at ambient temperature for 5 min prior to application on the cells. […] SYTOX Green (20 μl of 5 μM solution in 20 mM Hepes, pH 7.4) was added to the wells and the cells were examined. Each condition was repeated in 2 or 3 wells, and the cells were immediately examined by microscopy. Fluorescent microscopy studies were conducted with a three laser LSM 510 confocal microscope, an Axiovert S100 fluorescent microscope, or an Axioplan2 fluorescent microscope (all Zeiss) equipped with filter sets for the rhodamine fluorescence channel (λex=BP 450/12, λem=LP 590 nm filter set) and the fluorescein fluorescent channel (λex=BP 546/90, λem=LP 515 nm filter set). Imaging was performed with an AxioCam digital camera (Zeiss), with AxioVision imaging software (V 4.5, Zeiss). For all images, identical camera settings and exposure times were used on comparative sample and control images. Images were processed with Photoshop (Adobe) for level and brightness using identical settings between sample and control images.

[5] = system: SK-OV-3 (human ovarian carcinoma); experiment: WST cytotoxicity assay, SK-OV-3; format: cell-based; settings: SK-OV-3, 4 min drug exposure, read-out: Mean IC50
Description: Antiproliferative/Cytotoxic in vitro studies on PI, RRH-PI prodrugs, melphalan, and C12PMMA-melphalan. In vitro cytotoxicity testing was conducted on Hepa 1-6 (mouse hepatoma), SK-OV-3 (human ovarian carcinoma), and MC38 (mouse colon carcinoma) cells using a tetrazolium based assay (WST, Dojindo Molecular Technologies). For the WST assay, Hepa 1-6 (2.0×10^5 cells well), SK-OV-3 (7.5×10^5 cells well), and MC38 (8.5×10^5 cells well) were seeded in 1000 μL media into 12-well plates 24 h prior to testing (starting confluency ˜50%). Following removal of media, drug/prodrug solution was added drop-wise to quadruplicate wells, using the mixing chamber. Effective drug concentrations were calculated from the amount of drug added in the total volume of OS and aqueous solution. Following 4 min of drug solution exposure, the solution was removed, and 1000 μl fresh complete media was added to each well. After the cells were incubated for 24-48 h, WST-1 (20 μl of a 5 mM solution in PBS) and N-methylphenazonium methyl sulfate (PMS, 20 μl 0.2 mM solution in PBS) were added and the cells were incubated for 1-4 h. For testing with MC38 cells, the amounts of WST-1 and PMS were doubled. Following incubation, 100 μl of sample was transferred to quadruplicate wells on a 96-well plate, and the absorbance (438 nm) values were measured on a SPECTRAmax Plus^384 microplate spectrophotometer (Molecular Devices Corporation). Data represents the mean A438 values of 16 wells with standard deviation, corrected for media contribution, and normalized against cells in media with no drug/prodrug treatment (reported as % cell viability±standard deviation).
The concentration of drug (μM) that is required for 50% inhibition in vitro is reported as the IC50. The reported values were calculated from the best fit line (Excel) for a plot of effective drug concentration against % cell viability, and include the r^2 value. The reported IC50 values for multiple RRH-PI plots are reported as IC50 (μM)±standard deviation.

[6] = system: various tissues of normal mice; experiment: Propidium iodide delivery to a variety of target cells by injection or topical administration; format: in vivo, mouse
Description: Propidium iodide delivery to a variety of target cells. […] All biliary and gall bladder arteries, as well as bladder epithelium also stained (FIG. 14B). […] During injection time the common carotid artery was temporary occluded. After injection the blood flow was restored and animals sacrificed 5 min later. […] After three weeks, mice were injected with modified PI. […] Injection was performed using similar 35 G needle into right ureter close to the bladder. […] Clamps were then released and 5 min later animals were sacrificed. The intestine lumen was flushed with 1 ml of ITG and analyzed as described above.

[7] = intestinal intra lumen application, 100 μg

Row | Structure (SMILES) | hepatocytes in metaphase [1] | PI staining of MC38 liver metastases (MC38 liver metastases) | nuclear labeling of peritoneal tissues [2] | PI positive cells [3] | staining of cells (PI positive) [4] | IC50 ([5]; WST 24 h after) | IC50 ([5]; WST 48 h after) | nuclear staining [6, 7] | also measured
1 | CCCCCCCCCCCCNC(=O)CCC(=CCC(=O)O)C(=O)Nc1ccc2c(c1)c(-c1ccccc1)[n+](CCC[N+](C)(CC)CC)c1cc(NC(=O)C(=CCC(=O)O)CCC(=O)NCCCCCCCCCCCC)ccc21.[I-].[I-] [III, 3,8-bis-[2-(2 carboxyethylidene)-4-(dodecarbamoyl)-1-oxo-butylamine] 5-(3,3-diethyl-3-methylammoniumpropyl) 6-phenyl phenanthridinium diiodide] | 2.3% | paralleled the results detailed with II | near-exclusive PI^+-staining of cells exposed to the peritoneal cavity | paralleled the results obtained with II | paralleled the results obtained with II |  |  |  | 
2 | CC[N+](C)(CC)CCC[n+]1c(-c2ccccc2)c2cc(N)ccc2c2ccc(N)cc21.[I-].[I-] [PI, Propidium iodide, reference compound] | 7.0% | greatly decreased number of PI positive cells within the MC38 metastases | extremely rare nuclear labeling | small percentage of PI positive cells | stained very few cells | > 1250 µM | > 1700 µM | PI staining was observed in a few intestinal villi cells | PI staining of MC38 liver metastases (MC38 liver metastases; listed as unmodified PI): Few MC38 metastases labeled; nuclear staining ([6]; injection into any vessel or bile duct of normal liver): little to no nuclear staining; PI positive cells ([3]; listed as propidium iodide): stained very few cells
3 | CCCCCCCCCCCCCCCCCC[Si](C)(C)Nc1ccc2c(c1)c(-c1ccccc1)[n+](CCC[N+](C)(CC)CC)c1cc(N[Si](C)(C)CCCCCCCCCCCCCCCCCC)ccc21.[I-].[I-] [II, 3,8-bis[((dimethyl)octadecylsilazyl)amine] 5-(3,3-diethyl-3-methylammoniumpropyl) 6-phenyl phenanthridinium diiodide] |  | strong nuclear staining of the metastases | near-exclusive PI^+-staining of cells exposed to the peritoneal cavity | nearly all of the cells being PI positive | strong nuclear staining in all of the cells | 194 µM | 257 µM | strong labeling of all enterocyte nuclei | cells PI positive in liver parenchyma region (MC38 liver metastases; LABI, confocal counting): 1%; cells PI positive in portal vein region (MC38 liver metastases; LABI, confocal counting): 23%; cells PI positive in MC38 metastases (MC38 liver metastases; LABI, confocal counting, average of five images): 94%; PI positive cells in other organs (heart, lung, spleen, and kidneys) (MC38 liver metastases; after LABI): No PI positive cells were observed in any other organ examined; total number of PI positive non tumor cells in the liver (MC38 liver metastases; estimated from region counts): 2-3%; PI staining of MC38 liver metastases (MC38 liver metastases; listed as BDMODS-PI): intense, near-exclusive PI-staining of MC38 liver metastases; also recorded: strongly labeled with PI; also recorded: nearly all cells labeled; nuclear staining ([6]; injection into bile duct of normal mouse liver): strong nuclear staining of all bile duct epithelial cells; nuclear staining ([6]; injection into emptied bladder): strong staining of bladder transitional epithelium; nuclear staining ([6]; injection into hepatic artery of normal mouse liver): strong nuclear staining of hepatic artery endothelial and smooth-muscle cells; nuclear staining ([6]; injection into right carotid artery): strong staining of brain endothelial cells; nuclear staining ([6]; injection into the ureter): strong staining of ureter transitional epithelium nuclei; nuclear staining ([6]; injection into unclamped portal vein with preserved blood flow): strong nuclear staining of portal vein cells only; nuclear staining ([6]; portal vein clamped during injection): propidium iodide staining was observed in a majority of hepatocytes; PI positive cells, prodrug premixed with ITG [3]: very few PI positive cells; PI positive cells, prodrug premixed with ITG ([3]; listed as BDMODS-PI): did not show PI positive staining
